Data published in patent US10405547B2, “Substituted cyclic amides as herbicides” (FMC Corporation, priority 2015, dated 2019).

Tests used:
Type in all cases: in vivo
[1] = system: barnyardgrass (Echinochloa crus-galli); assay: Test A preemergence, barnyardgrass; conditions: 0 to 100 scale (0 no effect, 100 complete control)
Description: (§1) Test A Seeds of plant species selected from barnyardgrass (Echinochloa crus-galli), kochia (Kochia scoparia), ragweed (common ragweed, Ambrosia elatior), ryegrass, Italian (Lolium multiflorum), foxtail, giant (Setaria faberii), and pigweed (Amaranthus retroflexus), were planted into a blend of loam soil and sand and treated preemergence with a directed soil spray using test chemicals formulated in a non-phytotoxic solvent mixture which included a surfactant.
(§2) At the same time, plants selected from these weed species and also blackgrass (Alopecurus myosuroides), galium (catchweed bedstraw, Galium aparine), wheat (Triticum aestivum), and corn (Zea mays) were planted in pots containing the same blend of loam soil and sand and treated with postemergence applications of test chemicals formulated in the same manner. Plants ranged in height from 2 to 10 cm and were in the one- to two-leaf stage for the postemergence treatment. Treated plants and untreated controls were maintained in a greenhouse for approximately 10 days, after which time all treated plants were compared to untreated controls and visually evaluated for injury. Plant response ratings, summarized in Table A, are based on a 0 to 100 scale where 0 is no effect and 100 is complete control. A dash (-) response means no test result.

[2] = system: kochia (Kochia scoparia); assay: Test A preemergence, kochia; conditions: 0 to 100 scale (0 no effect, 100 complete control)
Description: as §1, §2

[3] = system: ragweed (common ragweed, Ambrosia elatior); assay: Test A preemergence, ragweed; conditions: 0 to 100 scale (0 no effect, 100 complete control)
Description: as §1, §2

[4] = system: ryegrass, Italian (Lolium multiflorum); assay: Test A preemergence, Italian ryegrass; conditions: 0 to 100 scale (0 no effect, 100 complete control)
Description: as §1, §2

[5] = system: foxtail, giant (Setaria faberii); assay: Test A preemergence, giant foxtail; conditions: 0 to 100 scale (0 no effect, 100 complete control)
Description: as §1, §2

[6] = system: pigweed (Amaranthus retroflexus); assay: Test A preemergence, pigweed; conditions: 0 to 100 scale (0 no effect, 100 complete control)
Description: as §1, §2

[7] = system: barnyardgrass (Echinochloa crus-galli); assay: Test A postemergence, barnyardgrass; conditions: visual injury, 0 to 100 scale (0 no effect, 100 complete control), approximately 10 days
Description: as §1, §2

[8] = system: kochia (Kochia scoparia); assay: Test A postemergence, kochia; conditions: visual injury, 0 to 100 scale (0 no effect, 100 complete control), approximately 10 days
Description: as §1, §2

[9] = system: ragweed (common ragweed, Ambrosia elatior); assay: Test A postemergence, ragweed; conditions: visual injury, 0 to 100 scale (0 no effect, 100 complete control), approximately 10 days
Description: as §1, §2

[10] = system: ryegrass, Italian (Lolium multiflorum); assay: Test A postemergence, Italian ryegrass; conditions: visual injury, 0 to 100 scale (0 no effect, 100 complete control), approximately 10 days
Description: as §1, §2

[11] = system: foxtail, giant (Setaria faberii); assay: Test A postemergence, giant foxtail; conditions: visual injury, 0 to 100 scale (0 no effect, 100 complete control), approximately 10 days
Description: as §1, §2

[12] = system: pigweed (Amaranthus retroflexus); assay: Test A postemergence, pigweed; conditions: visual injury, 0 to 100 scale (0 no effect, 100 complete control), approximately 10 days
Description: as §1, §2

[13] = system: blackgrass (Alopecurus myosuroides); assay: Test A postemergence, blackgrass; conditions: visual injury, 0 to 100 scale (0 no effect, 100 complete control), approximately 10 days
Description: as §1, §2

[14] = system: galium (catchweed bedstraw, Galium aparine); assay: Test A postemergence, galium; conditions: visual injury, 0 to 100 scale (0 no effect, 100 complete control), approximately 10 days
Description: as §1, §2

[15] = system: wheat (Triticum aestivum); assay: Test A postemergence, wheat; conditions: visual injury, 0 to 100 scale (0 no effect, 100 complete control), approximately 10 days
Description: as §1, §2

[16] = system: corn (Zea mays); assay: Test A postemergence, corn; conditions: visual injury, 0 to 100 scale (0 no effect, 100 complete control), approximately 10 days
Description: as §1, §2

O=C1NCC(c2cccc(COc3ccccc3)c2)C1C(=O)Nc1ccc(F)cc1F (stereo not drawn) [Compound 20]
20: Plant response rating, Barnyardgrass ([1]; 125 g ai/ha)
30: Plant response rating, Kochia ([2]; 500 g ai/ha) | Plant response rating, Foxtail, Giant ([5]; 125 g ai/ha)
80: Plant response rating, Foxtail, Giant ([5]; 500 g ai/ha)
0: Plant response rating, Kochia ([2]; 125 g ai/ha) | Plant response rating, Ragweed ([3]; 125 g ai/ha) | Plant response rating, Ragweed ([3]; 500 g ai/ha) | Plant response rating, Ryegrass, Italian ([4]; 125 g ai/ha) | Plant response rating, Ryegrass, Italian ([4]; 500 g ai/ha) | Plant response rating, Pigweed ([6]; 125 g ai/ha) | Plant response rating, Pigweed ([6]; 500 g ai/ha) | Plant response rating, Kochia ([8]; 125 g ai/ha) | Plant response rating, Kochia ([8]; 500 g ai/ha) | Plant response rating, Ragweed ([9]; 125 g ai/ha) | Plant response rating, Ragweed ([9]; 500 g ai/ha) | Plant response rating, Ryegrass, Italian ([10]; 125 g ai/ha) | Plant response rating, Ryegrass, Italian ([10]; 500 g ai/ha) | Plant response rating, Pigweed ([12]; 125 g ai/ha) | Plant response rating, Pigweed ([12]; 500 g ai/ha) | Plant response rating, Blackgrass ([13]; 125 g ai/ha) | Plant response rating, Blackgrass ([13]; 500 g ai/ha) | Plant response rating, Galium ([14]; 125 g ai/ha) | Plant response rating, Galium ([14]; 500 g ai/ha) | Plant response rating, Wheat ([15]; 125 g ai/ha) | Plant response rating, Wheat ([15]; 500 g ai/ha) | Plant response rating, Corn ([16]; 125 g ai/ha) | Plant response rating, Corn ([16]; 500 g ai/ha)
40: Plant response rating, Barnyardgrass ([7]; 125 g ai/ha) | Plant response rating, Foxtail, Giant ([11]; 125 g ai/ha)
70: Plant response rating, Barnyardgrass ([1]; 500 g ai/ha) | Plant response rating, Barnyardgrass ([7]; 500 g ai/ha)
60: Plant response rating, Foxtail, Giant ([11]; 500 g ai/ha)

O=C1NCC(c2cccc(COc3ccccc3)c2)C1C(=O)Nc1cccc(F)c1F (stereo not drawn) [Compound 21]
30: Plant response rating, Foxtail, Giant ([11]; 125 g ai/ha) | Plant response rating, Foxtail, Giant ([11]; 500 g ai/ha)
20: Plant response rating, Kochia ([2]; 500 g ai/ha) | Plant response rating, Foxtail, Giant ([5]; 125 g ai/ha) | Plant response rating, Barnyardgrass ([7]; 125 g ai/ha) | Plant response rating, Barnyardgrass ([7]; 500 g ai/ha)
0: Plant response rating, Barnyardgrass ([1]; 125 g ai/ha) | Plant response rating, Kochia ([2]; 125 g ai/ha) | Plant response rating, Ragweed ([3]; 125 g ai/ha) | Plant response rating, Ragweed ([3]; 500 g ai/ha) | Plant response rating, Ryegrass, Italian ([4]; 125 g ai/ha) | Plant response rating, Ryegrass, Italian ([4]; 500 g ai/ha) | Plant response rating, Pigweed ([6]; 125 g ai/ha) | Plant response rating, Pigweed ([6]; 500 g ai/ha) | Plant response rating, Kochia ([8]; 125 g ai/ha) | Plant response rating, Kochia ([8]; 500 g ai/ha) | Plant response rating, Ragweed ([9]; 125 g ai/ha) | Plant response rating, Ragweed ([9]; 500 g ai/ha) | Plant response rating, Ryegrass, Italian ([10]; 125 g ai/ha) | Plant response rating, Ryegrass, Italian ([10]; 500 g ai/ha) | Plant response rating, Pigweed ([12]; 125 g ai/ha) | Plant response rating, Pigweed ([12]; 500 g ai/ha) | Plant response rating, Blackgrass ([13]; 125 g ai/ha) | Plant response rating, Blackgrass ([13]; 500 g ai/ha) | Plant response rating, Galium ([14]; 125 g ai/ha) | Plant response rating, Galium ([14]; 500 g ai/ha) | Plant response rating, Wheat ([15]; 125 g ai/ha) | Plant response rating, Wheat ([15]; 500 g ai/ha) | Plant response rating, Corn ([16]; 125 g ai/ha) | Plant response rating, Corn ([16]; 500 g ai/ha)
60: Plant response rating, Foxtail, Giant ([5]; 500 g ai/ha)
40: Plant response rating, Barnyardgrass ([1]; 500 g ai/ha)

O=C1NCC(c2cccc(Cn3cccn3)c2)C1C(=O)Nc1ccc(F)c(F)c1F (stereo not drawn) [Compound 26]
60: Plant response rating, Foxtail, Giant ([11]; 500 g ai/ha)
0: Plant response rating, Kochia ([2]; 125 g ai/ha) | Plant response rating, Kochia ([2]; 500 g ai/ha) | Plant response rating, Ragweed ([3]; 125 g ai/ha) | Plant response rating, Ragweed ([3]; 500 g ai/ha) | Plant response rating, Ryegrass, Italian ([4]; 125 g ai/ha) | Plant response rating, Ryegrass, Italian ([4]; 500 g ai/ha) | Plant response rating, Pigweed ([6]; 125 g ai/ha) | Plant response rating, Pigweed ([6]; 500 g ai/ha) | Plant response rating, Kochia ([8]; 125 g ai/ha) | Plant response rating, Kochia ([8]; 500 g ai/ha) | Plant response rating, Ragweed ([9]; 125 g ai/ha) | Plant response rating, Ragweed ([9]; 500 g ai/ha) | Plant response rating, Ryegrass, Italian ([10]; 125 g ai/ha) | Plant response rating, Ryegrass, Italian ([10]; 500 g ai/ha) | Plant response rating, Pigweed ([12]; 125 g ai/ha) | Plant response rating, Pigweed ([12]; 500 g ai/ha) | Plant response rating, Blackgrass ([13]; 125 g ai/ha) | Plant response rating, Blackgrass ([13]; 500 g ai/ha) | Plant response rating, Galium ([14]; 125 g ai/ha) | Plant response rating, Galium ([14]; 500 g ai/ha) | Plant response rating, Wheat ([15]; 125 g ai/ha) | Plant response rating, Wheat ([15]; 500 g ai/ha) | Plant response rating, Corn ([16]; 125 g ai/ha) | Plant response rating, Corn ([16]; 500 g ai/ha)
30: Plant response rating, Barnyardgrass ([7]; 125 g ai/ha) | Plant response rating, Foxtail, Giant ([11]; 125 g ai/ha)
40: Plant response rating, Barnyardgrass ([1]; 125 g ai/ha) | Plant response rating, Foxtail, Giant ([5]; 125 g ai/ha)
90: Plant response rating, Barnyardgrass ([1]; 500 g ai/ha) | Plant response rating, Foxtail, Giant ([5]; 500 g ai/ha)
70: Plant response rating, Barnyardgrass ([7]; 500 g ai/ha)
